Columns and labels:
[1] = target: T1, NACHT, LRR and PYD domains-containing protein 3 (Mus musculus, UniProt Q8R4B8); assay: Inhibition of NLRP3 inflammasome in LPS-primed mouse J774.A1 cells assessed as reduction in IL-1beta secretion preincubated for 30 mins followed by ATP addition and measured after 30 mins by ELISA; assay type: cell-based
[2] = target: T2, Interferon-inducible protein AIM2 (Mus musculus) (UniProt Q91VJ1); assay: Inhibition of AIM2 inflammasome in LPS-primed mouse J774.A1 cells assessed as IL-1beta secretion at 10 uM preincubated for 1 hr followed by poly(dA:dT) addition and measured after 4 hrs by ELISA relative to control; assay type: cell-based; design: scale not given: the % may be the effect or the level left; conditions: time 5.0 hrs
T2 sequence (whole entry): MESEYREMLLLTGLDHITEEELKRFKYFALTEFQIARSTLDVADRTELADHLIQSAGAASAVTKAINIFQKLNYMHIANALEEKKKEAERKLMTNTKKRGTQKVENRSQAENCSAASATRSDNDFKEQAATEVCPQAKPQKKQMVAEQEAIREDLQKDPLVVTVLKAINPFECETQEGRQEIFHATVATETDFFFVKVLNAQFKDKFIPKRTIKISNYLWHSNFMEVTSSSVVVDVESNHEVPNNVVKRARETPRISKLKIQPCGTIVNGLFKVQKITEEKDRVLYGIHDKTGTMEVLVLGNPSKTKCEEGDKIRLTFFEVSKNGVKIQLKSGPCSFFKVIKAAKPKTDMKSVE

[3] = target: NLR family CARD domain-containing protein 4 (Mus musculus) (UniProt Q3UP24); assay: Inhibition of NLRC4 inflammasome in LPS-primed mouse J774.A1 cells assessed as IL-1beta secretion at 10 uM preincubated for 1 hr followed by flagellin addition and measured after 6 hrs by ELISA relative to control; assay type: cell-based; design: scale not given: the % may be the effect or the level left; conditions: time 7.0 hrs
J774.A1 = assay: (§1) Cytotoxicity against mouse J774.A1 cells assessed as cell viability at 10 uM incubated for 4 hrs by MTT assay relative to control; assay type: toxicity, cell-based; conditions: j774.a1, 4 h, 10 µM
HEK293 = assay: (§2) Cytotoxicity against HEK293 cells assessed as cell viability at 10 uM incubated for 4 hrs by MTT assay relative to control; assay type: toxicity, cell-based; conditions: human, hek293, 4 h, 10 µM
[4] = as §1; assay type: toxicity, cell-based; conditions: J774.A1 cells, read-out: Activity
[5] = as §2; assay type: toxicity, cell-based; conditions: human, HEK293 cells, read-out: Activity
[6] = target: T3, Interferon-inducible protein AIM2 (Mus musculus, UniProt Q91VJ1); assay: Inhibition of AIM2 inflammasome in LPS-primed mouse J774.A1 cells assessed as reduction in IL-1beta secretion preincubated for 1 hr followed by poly(dA:dT) addition and measured after 4 hrs by ELISA; assay type: cell-based
T3 sequence (Q91VJ1 whole entry): T2 sequence (whole entry)

[7] = Inhibition of IL-1beta production in C57BL/6 mouse assessed as reduction in IL-1beta level in serum at 10 mg/kg, ip pretreated with compound followed by LPS addition and measured after 2.5 hrs by ELISA; assay type: functional
[8] = target: NACHT, LRR and PYD domains-containing protein 3 (Homo sapiens, UniProt Q96P20); assay: Binding affinity to human recombinant full length NLRP3 transfected in HEK293F cells assessed as dissociation constant incubated for 40 mins by microscale thermophoresis analysis
[9] = target: T1, NACHT, LRR and PYD domains-containing protein 3; assay: Inhibition of NLRP3 inflammasome in LPS-primed mouse BMDM cells assessed as reduction in IL-1beta secretion preincubated for 30 mins followed by ATP addition and measured after 30 mins by ELISA; assay type: cell-based
[10] = target: NLR family CARD domain-containing protein 4 (Mus musculus, UniProt Q3UP24); assay: Inhibition of NLRC4 inflammasome in LPS-primed mouse J774.A1 cells assessed as reduction in IL-1beta secretion preincubated for 1 hr followed by flagellin addition and measured after 6 hrs by ELISA; assay type: cell-based
[11] = Drug uptake in iv dosed C57BL/6 mouse brain cerebellum measured after 60 mins by PET/CT imaging analysis; assay type: ADME, organism-based; conditions: in vivo, 1 h
[12] = Drug uptake in iv dosed C57BL/6 mouse lung measured after 60 mins; conditions: in vivo, 1 h
[13] = Drug uptake in iv dosed C57BL/6 mouse brain cortex measured after 60 mins by PET/CT imaging analysis; assay type: ADME, organism-based; conditions: in vivo, 1 h
[14] = Drug uptake in iv dosed C57BL/6 mouse brain striatum measured after 60 mins by PET/CT imaging analysis; assay type: ADME, organism-based; conditions: in vivo, 1 h
[15] = Drug uptake in iv dosed C57BL/6 mouse Midbrain measured after 60 mins by PET/CT imaging analysis; assay type: ADME, organism-based; conditions: in vivo, 1 h
[16] = Drug uptake in iv dosed C57BL/6 mouse brain thalamus measured after 60 mins by PET/CT imaging analysis; assay type: ADME, organism-based; conditions: in vivo, 1 h
[17] = Drug uptake in iv dosed C57BL/6 mouse blood measured after 60 mins; conditions: in vivo, 1 h
[18] = Drug uptake in iv dosed C57BL/6 mouse liver measured after 60 mins; conditions: in vivo, 1 h
[19] = Drug uptake in iv dosed C57BL/6 mouse kidney measured after 3 min by PET/CT imaging analysis; assay type: ADME, organism-based; conditions: in vivo, 0.05 h
[20] = Drug uptake in iv dosed C57BL/6 mouse Brainstem measured after 60 mins by PET/CT imaging analysis; assay type: ADME, organism-based; conditions: in vivo, 1 h
[21] = Drug uptake in iv dosed C57BL/6 mouse lung measured after 1 min by PET/CT imaging analysis; assay type: ADME, organism-based; conditions: in vivo
[22] = Drug uptake in iv dosed C57BL/6 mouse liver measured after 3 min by PET/CT imaging analysis; assay type: ADME, organism-based; conditions: in vivo, 0.05 h
[23] = Uptake in iv dosed C57BL/6 mouse kidney measured after 60 mins; conditions: in vivo, 1 h
[24] = Drug uptake in iv dosed C57BL/6 mouse blood measured after 1 min by PET/CT imaging analysis; assay type: ADME, organism-based; conditions: in vivo
[25] = Drug uptake in iv dosed C57BL/6 mouse brain measured after 60 mins by PET/CT imaging analysis; assay type: ADME, organism-based; conditions: in vivo, 1 h
[26] = Drug uptake in iv dosed C57BL/6 mouse hippocampus measured after 60 mins by PET/CT imaging analysis; assay type: ADME, organism-based; conditions: in vivo, 1 h

NLR family CARD domain-containing protein 4 (Mus musculus), sequence (Q3UP24 whole entry, the tested form may be a part): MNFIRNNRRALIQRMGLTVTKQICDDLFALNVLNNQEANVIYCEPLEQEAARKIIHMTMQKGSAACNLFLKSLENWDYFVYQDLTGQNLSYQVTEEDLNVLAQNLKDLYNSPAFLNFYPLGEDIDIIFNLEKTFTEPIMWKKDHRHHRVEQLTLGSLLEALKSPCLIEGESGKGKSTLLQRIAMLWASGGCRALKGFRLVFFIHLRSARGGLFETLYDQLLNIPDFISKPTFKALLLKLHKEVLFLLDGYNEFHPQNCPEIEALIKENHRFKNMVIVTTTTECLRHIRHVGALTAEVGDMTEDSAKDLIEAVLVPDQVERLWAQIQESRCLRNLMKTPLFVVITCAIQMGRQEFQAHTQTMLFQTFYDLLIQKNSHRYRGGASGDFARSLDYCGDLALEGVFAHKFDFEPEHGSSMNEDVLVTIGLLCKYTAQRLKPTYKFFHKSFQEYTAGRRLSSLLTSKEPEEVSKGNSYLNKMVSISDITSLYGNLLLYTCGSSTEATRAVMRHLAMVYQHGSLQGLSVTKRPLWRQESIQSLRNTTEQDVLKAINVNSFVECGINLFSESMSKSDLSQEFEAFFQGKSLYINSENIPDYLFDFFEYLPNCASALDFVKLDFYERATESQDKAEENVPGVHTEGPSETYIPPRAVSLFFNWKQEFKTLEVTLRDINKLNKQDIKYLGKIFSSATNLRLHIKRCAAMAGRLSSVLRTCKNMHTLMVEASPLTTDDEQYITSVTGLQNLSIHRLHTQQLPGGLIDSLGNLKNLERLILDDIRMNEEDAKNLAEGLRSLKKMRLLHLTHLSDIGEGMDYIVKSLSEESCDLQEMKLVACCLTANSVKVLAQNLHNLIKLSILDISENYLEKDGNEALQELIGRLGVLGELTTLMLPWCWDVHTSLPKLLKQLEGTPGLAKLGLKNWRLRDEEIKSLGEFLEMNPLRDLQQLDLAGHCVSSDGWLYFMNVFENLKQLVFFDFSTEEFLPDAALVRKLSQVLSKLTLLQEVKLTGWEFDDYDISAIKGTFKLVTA
NLR family CARD domain-containing protein 4, sequence (Q3UP24 whole entry, the tested form may be a part): as above
T1 sequence (Q8R4B8 whole entry, the tested form may be a part): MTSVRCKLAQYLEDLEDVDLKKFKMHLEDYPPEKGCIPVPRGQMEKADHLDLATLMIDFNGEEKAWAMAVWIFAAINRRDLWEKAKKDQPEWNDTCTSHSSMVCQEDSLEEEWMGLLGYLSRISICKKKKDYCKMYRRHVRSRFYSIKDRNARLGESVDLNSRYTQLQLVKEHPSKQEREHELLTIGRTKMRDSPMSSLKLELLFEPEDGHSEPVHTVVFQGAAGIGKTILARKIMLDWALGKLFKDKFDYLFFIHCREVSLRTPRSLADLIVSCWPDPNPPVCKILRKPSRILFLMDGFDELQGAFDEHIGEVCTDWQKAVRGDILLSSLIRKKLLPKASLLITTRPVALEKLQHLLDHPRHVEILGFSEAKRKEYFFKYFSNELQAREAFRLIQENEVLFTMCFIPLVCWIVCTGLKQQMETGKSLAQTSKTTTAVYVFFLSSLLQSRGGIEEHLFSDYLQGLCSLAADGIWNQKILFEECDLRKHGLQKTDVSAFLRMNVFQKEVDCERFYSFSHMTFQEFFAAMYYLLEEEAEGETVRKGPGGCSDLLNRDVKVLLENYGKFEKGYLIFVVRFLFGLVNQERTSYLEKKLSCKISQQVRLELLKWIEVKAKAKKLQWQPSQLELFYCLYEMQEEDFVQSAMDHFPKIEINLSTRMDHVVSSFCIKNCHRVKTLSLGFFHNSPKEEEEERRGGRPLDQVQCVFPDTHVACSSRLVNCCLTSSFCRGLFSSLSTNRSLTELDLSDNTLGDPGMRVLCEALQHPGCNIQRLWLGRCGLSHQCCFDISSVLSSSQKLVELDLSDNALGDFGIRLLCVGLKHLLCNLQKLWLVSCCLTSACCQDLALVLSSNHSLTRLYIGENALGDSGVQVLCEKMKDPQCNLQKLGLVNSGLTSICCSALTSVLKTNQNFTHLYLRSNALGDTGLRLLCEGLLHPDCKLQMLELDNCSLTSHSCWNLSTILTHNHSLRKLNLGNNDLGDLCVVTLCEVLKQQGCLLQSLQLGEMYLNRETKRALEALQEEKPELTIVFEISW
NACHT, LRR and PYD domains-containing protein 3 (Homo sapiens, UniProt Q96P20), sequence (Q96P20 whole entry, the tested form may be a part): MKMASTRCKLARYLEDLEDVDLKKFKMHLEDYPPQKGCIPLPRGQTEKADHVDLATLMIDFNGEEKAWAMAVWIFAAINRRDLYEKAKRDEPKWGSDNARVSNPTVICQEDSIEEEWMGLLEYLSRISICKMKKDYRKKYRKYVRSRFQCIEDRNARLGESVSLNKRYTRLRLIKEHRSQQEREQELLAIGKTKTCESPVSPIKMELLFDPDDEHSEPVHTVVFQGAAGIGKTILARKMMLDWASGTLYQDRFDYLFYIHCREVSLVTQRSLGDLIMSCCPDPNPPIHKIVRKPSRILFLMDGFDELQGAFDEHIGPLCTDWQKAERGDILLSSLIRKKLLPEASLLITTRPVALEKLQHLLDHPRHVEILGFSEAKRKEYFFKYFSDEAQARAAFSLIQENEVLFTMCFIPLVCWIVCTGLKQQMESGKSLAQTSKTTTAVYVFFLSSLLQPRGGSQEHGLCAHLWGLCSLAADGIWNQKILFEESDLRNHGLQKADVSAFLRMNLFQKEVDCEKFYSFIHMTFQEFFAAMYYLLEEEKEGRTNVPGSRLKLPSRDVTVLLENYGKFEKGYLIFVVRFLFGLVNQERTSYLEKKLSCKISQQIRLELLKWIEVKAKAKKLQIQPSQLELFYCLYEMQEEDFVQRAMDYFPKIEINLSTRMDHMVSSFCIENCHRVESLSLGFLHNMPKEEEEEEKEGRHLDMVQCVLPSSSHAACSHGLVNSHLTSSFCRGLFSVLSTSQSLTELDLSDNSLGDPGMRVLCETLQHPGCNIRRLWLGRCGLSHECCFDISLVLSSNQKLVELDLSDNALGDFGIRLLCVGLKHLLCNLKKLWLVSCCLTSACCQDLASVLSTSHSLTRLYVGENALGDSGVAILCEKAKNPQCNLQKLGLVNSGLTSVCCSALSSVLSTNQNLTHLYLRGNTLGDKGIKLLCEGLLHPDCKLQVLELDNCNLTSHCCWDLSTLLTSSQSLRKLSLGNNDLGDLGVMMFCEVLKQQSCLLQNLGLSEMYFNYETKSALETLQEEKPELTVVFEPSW

IC50 [1]	Activity [2]	Activity [3]	Compound	Activity (J774.A1)	Activity (HEK293)	other results
440 nM	0%	29.1%	C#CCS(=O)(=O)c1ccc(CCN(Cc2cc(Cl)ccc2OCCC)C(=O)c2csc3ccccc23)cc1	85.7%	95.6%	–
460 nM	–	–	C#CCNS(=O)(=O)c1ccc(CCN(Cc2cc(Cl)ccc2C(F)(F)F)C(=O)Cc2ccsc2)cc1	93.1%	92.1%	–
340 nM	68.8%	66.9%	C#CCNS(=O)(=O)c1ccc(CCN(Cc2cccc3c2OCO3)C(=O)Cc2ccsc2)cc1	100%	100.7%	–
2490 nM	89.4%	76.2%	C#CCNS(=O)(=O)c1ccc(CCN(Cc2ccco2)C(=O)Cc2ccsc2)cc1	112.9%	96.4%	–
470 nM	–	–	CCCOc1ccc(Cl)cc1CN(CCc1ccc(S(=O)(=O)N2CCOCC2)cc1)C(=O)Cc1ccsc1	103.4%	88.3%	–
1130 nM	–	–	C#CCNS(=O)(=O)c1ccc(CCN(Cc2cc(Cl)ccc2N)C(=O)Cc2ccsc2)cc1	93.5%	92.9%	–
–	–	–	CC(C)(C)c1coc(S(=O)(=O)NC(=O)Nc2c3c(cc4c2CCC4)CCC3)c1	–	–	viability at 4 h, 10 µM [4]: 94.9%; viability at 4 h, 10 µM [5]: 95.2%
680 nM	47.3%	8%	C#CCNS(=O)(=O)c1ccc(CCN(Cc2cc(Cl)ccc2O)C(=O)Cc2ccsc2)cc1	92%	97.6%	–
120 nM	67.6%	101%	C#CCNS(=O)(=O)c1ccc(CCN(Cc2cc(Cl)ccc2OCCC)C(=O)c2ccc(F)cc2)cc1	96.3%	91.6%	IC50 [6]: > 10000 nM; inhibition in vivo at 10 mg/kg [7]: 75%; Kd [8]: 84 nM; IC50 [9]: 910 nM; IC50 [10]: > 10000 nM
320 nM	108%	80.8%	C#CCN(C)S(=O)(=O)c1ccc(CCN(Cc2cc(Cl)ccc2OCCC)C(=O)Cc2ccsc2)cc1	105.8%	94.5%	IC50 [6]: > 10000 nM; IC50 [10]: > 10000 nM
750 nM	49.8%	28.9%	C#CCNS(=O)(=O)c1ccc(CCN(Cc2ccsc2)Cc2cc(Cl)ccc2OCCC)cc1	90.5%	82%	–
930 nM	–	–	C#CCNS(=O)(=O)c1ccc(CCN(Cc2cccc3c2OCO3)C(=O)c2ccc(F)cc2)cc1	99.5%	93.4%	–
1170 nM	–	–	C#CCNS(=O)(=O)c1ccc(CCN(Cc2cc(Cl)ccc2OCCC)C(=O)CCCc2ccsc2)cc1	97.9%	89.1%	–
760 nM	–	–	C#CCNS(=O)(=O)c1ccc(CCN(Cc2cc(Cl)ccc2OCCC)C(=O)c2ccc([N+](=O)[O-])cc2)cc1	101.3%	91.6%	–
210 nM	96.7%	85.6%	C#CCNS(=O)(=O)c1ccc(CCN(Cc2cc(Cl)ccc2OCCC)C(=O)Cc2csc3ccccc23)cc1	105.4%	99.8%	IC50 [6]: > 10000 nM; IC50 [10]: > 10000 nM
7580 nM	–	–	CCCOc1ccc(Cl)cc1CN(CCc1ccc(S(=O)(=O)N2CCC2)cc1)C(=O)c1csc2ccccc12	107%	100.7%	–
130 nM	79.7%	74.7%	C#CCNS(=O)(=O)c1ccc(CCN(Cc2cc(Cl)ccc2OCCC)C(=O)c2csc3ccccc23)cc1	108.1%	92.6%	–
620 nM	–	–	C#CCNS(=O)(=O)c1ccc(CCN(Cc2cc(Cl)ccc2OCCC)C(=O)c2ccc(O)cc2)cc1	83.5%	92.1%	–
210 nM	–	–	C#CCNS(=O)(=O)c1ccc(CCN(Cc2cc(Cl)ccc2OCC#C)C(=O)Cc2ccsc2)cc1	95.5%	94.8%	–
790 nM	61.4%	70.1%	C#CCNS(=O)(=O)c1ccc(CCN(Cc2ccccc2OCCC)C(=O)Cc2ccsc2)cc1	100.2%	98.9%	–
2490 nM	–	–	C#CCNS(=O)(=O)c1ccc(CCN(Cc2cc(Cl)ccc2OCCC)C(=O)c2ccc(B3OC(C)(C)C(C)(C)O3)cc2)cc1	88.1%	95.2%	–
190 nM	59.1%	102%	C#CCNS(=O)(=O)c1ccc(CCN(Cc2cccc3c2OCO3)C(=O)Cc2ccc(F)cc2)cc1	96.8%	96.2%	–
190 nM	0%	0%	C#CCS(=O)(=O)c1ccc(CCN(Cc2cc(Cl)ccc2OCCC)C(=O)Cc2ccsc2)cc1	81.1%	88.7%	–
660 nM	52.3%	89.3%	CCCOc1ccc(Cl)cc1CN(CCc1ccc(S(=O)(=O)NCC(C)(C)C)cc1)C(=O)Cc1ccsc1	105.1%	–	–
–	–	–	C#CCNS(=O)(=O)c1ccc(CCN(Cc2cc(Cl)ccc2OCCC)C(=O)c2ccc([18F])cc2)cc1	–	–	Drug uptake [11]: Active; Drug uptake [12]: 4.7 %ID/cc; Drug uptake [13]: Active; Drug uptake [14]: Active; Drug uptake [15]: Active; Drug uptake [16]: Active; Drug uptake [17]: 4.2 %ID/cc; Drug uptake [18]: 12 %ID/cc; Drug uptake [19]: 20 %ID/cc; Drug uptake [20]: Active; Drug uptake [21]: 22.6 %ID/cc; Drug uptake [22]: 18.1 %ID/cc; Drug uptake [23]: 12.3 %ID/cc; Drug uptake [24]: 30.1 %ID/cc; Drug uptake [25]: 1.8 %ID/cc; Drug uptake [26]: Active
1350 nM	102%	109%	CCCOc1ccc(Cl)cc1CN(CCc1ccc(S(=O)(=O)N2CCC2)cc1)C(=O)Cc1ccc(F)cc1	106.1%	103.6%	–
–	–	–	C#CCNS(=O)(=O)c1ccc(CCN(Cc2cc(Cl)ccc2OCCC)C(=O)Cc2ccsc2)cc1	106%	99%	–
510 nM	–	–	C#CCNS(=O)(=O)c1ccc(CCN(Cc2cc(Cl)ccc2OCCC)C(=O)c2csc3c2CCCC3)cc1	93.7%	95.9%	–
280 nM	–	–	C#CCNS(=O)(=O)c1ccc(CCN(Cc2cc(Cl)ccc2OCCC)C(=O)Cc2ccc(F)cc2)cc1	102.2%	90.6%	–
300 nM	82.7%	78.9%	C#CCNS(=O)(=O)c1ccc(CCN(Cc2cc(Cl)ccc2[N+](=O)[O-])C(=O)Cc2ccsc2)cc1	98.7%	96.2%	–

From ChEMBL document CHEMBL5137033, “Development of sulfonamide-based NLRP3 inhibitors: Further modifications and optimization through structure-activity relationship studies” (Eur J Med Chem, 2022)
